According to patent US20250268873A1, “COMBINATION OF DUAL ATM AND DNA-PK INHIBITORS AND IMMUNOTHERAPEUTIC AGENTS FOR USE IN CANCER THERAPY” (XRAD THERAPEUTICS, INC., priority 2021, published 2025):

Test system: TBK1
Assay: Immunoblot of TBK1 phosphorylation in HCT116 cells
Format: cell-based, human
Conditions: HCT116 p53 wild-type and p53−/− cells; 1 μM single agents, combination 0.5 or 1 micromolar each
Excerpt: Antibodies recognizing phosphorylated/activated ATM (S1981, #ab81292) and DNA-PKcs (S2056, #ab18192) were purchased from Abcam Biotechnology (Cambridge, MA). Antibodies to ATM (#A1106) and DNA-PKcs (#ab1832) were from Sigma and Abcam, respectively. Phospho-KAP1 (S824, #A300-767A) and KAP1 (A700-014) antibodies were from Bethyl Labs (Montgomery, TX). Phospho-TBK1 (#5483), cGAS (#15102), and pSTING (S366, #19781S) antibodies were from Cell Signaling Technology (CST) (Danvers, MA). STING (PA5-23381) antibodies were from ThermoFisher Scientific (Waltham, MA), and actin (#A5316) antibodies were from Sigma. All antibodies were diluted 1:1000 with the exception of actin which was diluted 1:3000 in 1×TBST (1×TBS-10×TBS, (Corning, 46-012-CM), 0.05% Tween-20 (P7949) Sigma and 1% BSA. Secondary antibodies used were (a) Li-Cor method-Goat anti-Rabbit (926-3221) and Goat anti-Mouse (926-68020) Li-Cor (b) ECL method: Anti-rabbit IgG, HRP-linked (#7074S), CST.
Cells were pretreated with Compound 569 at 20, 100, 500, or 1000 nM or DMSO for 30 min and then irradiated with 0 or 10 Gy (XRAD 160, Precision X Ray) as shown in FIG. 1. In FIG. 3, cells were pretreated with Compound 569 at 1 μM, ATMi (AZD0156) at 1 μM, DNA-PKi (peposertib) at 1 μM as single agents or DMSO or with ATMi and DNA-PKi in combination at 0.5 micromolar each or at 1 micromolar each for 30 min and then irradiated with 0 or 10 Gy (XRAD 160, Precision X Ray) as shown in FIG. 1. One hour after IR, cells were lysed in RIPA buffer ([…], pH 8.0, 150 mM NaCl, 0.1% SDS, 0.5% sodium deoxycholate, 1% IGEPAL® CA-630 (Sigma, 18896) for 20 min at 4° C. in the presence of protease and phosphatase inhibitor cocktails (Roche, #04693159001 & #04906837001). Cell lysates were centrifuged at 13,200 g for 10 min at 4° C. and supernatants were analyzed for protein content using BCA assay (Pierce™ BCA Protein Assay Kit, cat #23227, ThermoFisher Waltham, MA 02451) and equal amounts of protein/lane were used for subsequent immunoblot analyses. Proteins were denatured by adding NuPAGE LSD Sample Buffer [4×] […]

Structure (SMILES) | phosphorylation of TBK1
CN(C)CCCOc1ccc(-c2ccc3ncc4c(c3c2)n(C2CCOCC2)c(=O)n4C)cn1 [AZD0156] | induction of phosphorylation of TBK1
COc1ccc([C@@H](O)c2cc(-c3ncnc4cc(N5CCOCC5)ccc34)c(F)cc2Cl)nn1 [peposertib] | induction of phosphorylation of TBK1
